In patent publication US5104880A, “Huperzine a analogs as acetylcholinesterase inhibitors” (Mayo Foundation for Medical Education and Research, priority 1991, dated 1992):
Where two headings read alike, the source gives them in different places.

Assays:
AChE [1] = biological target: T1, AChE (Rattus norvegicus, UniProt P37136); test: biochemical
T1 construct: from tissue; host or cells: rat hippocampus, crude homogenate (P2 synaptosome-rich fraction)
Protocol: *Assayed using rat hippocampal crude homogenates over a concentration
in 10% DMSO made up in the incubation buffer medium. In addition, those
hydrochloric acid and sonicated briefly until they dissolved in the
solution. In each case, the control medium always consisted of the same
ingredients as those which were used to dissolve the compound under
The activity of these new compounds was assayed using AChE isolated from rat brain. […] Rats were killed by decapitation and the brains were extirpated rapidly. […] Homogenates were centrifuged at 1000×g for 10 min to remove cell nuclei and heavy debris. […] A portion of this synaptosome-rich fraction was added in triplicate to ice-cold pH 7.4 Krebs-Ringer medium.
Assay of AChE was carried out according to the method described in C. […] Tissue homogenate was incubated for 30 min at 30° C. in a final volume of […] containing 75 mM sodium phosphate buffer, pH 7.0, and 1.5 mM [^14 C]acetylcholine (1.9 mCi/mmol). […] The tubes were vortexed for 10 sec, then centrifuged for 1 min. The bottom aqueous layer was quickly frozen in a dry ice/acetone bath, and the top organic layer aspirated off. Finally, the buffer was allowed to thaw, and a 25 μl portion was counted for the amount of [^14 C]acetate formed. The amount of residual [^14 C]acetylcholine left in the buffer by the extraction step alone was determined by subtracting from the tissue sample values of [^14 C]acetylcholine measured in a blank sample that contained buffer and substrate, but no tissue.

AChE [2] = conditions: vs (±)-huperzine A; cited from earlier work
myasthenia gravis = conditions: 128 patients; cited from earlier work
mice = conditions: cited from earlier work
squirrel monkeys = conditions: cited from earlier work
animals = conditions: studies performed in China; cited from earlier work
AChE [3] = conditions: as AChE inhibitors for treatment of AD; cited from earlier work
AChE [4] = conditions: 0.65 mg/kg i.m.; cited from earlier work
Alzheimer's Disease = conditions: cited from earlier work
[5] = 0.65 mg/kg i.m.; cited from earlier work

T1 sequence (P37136 32-614): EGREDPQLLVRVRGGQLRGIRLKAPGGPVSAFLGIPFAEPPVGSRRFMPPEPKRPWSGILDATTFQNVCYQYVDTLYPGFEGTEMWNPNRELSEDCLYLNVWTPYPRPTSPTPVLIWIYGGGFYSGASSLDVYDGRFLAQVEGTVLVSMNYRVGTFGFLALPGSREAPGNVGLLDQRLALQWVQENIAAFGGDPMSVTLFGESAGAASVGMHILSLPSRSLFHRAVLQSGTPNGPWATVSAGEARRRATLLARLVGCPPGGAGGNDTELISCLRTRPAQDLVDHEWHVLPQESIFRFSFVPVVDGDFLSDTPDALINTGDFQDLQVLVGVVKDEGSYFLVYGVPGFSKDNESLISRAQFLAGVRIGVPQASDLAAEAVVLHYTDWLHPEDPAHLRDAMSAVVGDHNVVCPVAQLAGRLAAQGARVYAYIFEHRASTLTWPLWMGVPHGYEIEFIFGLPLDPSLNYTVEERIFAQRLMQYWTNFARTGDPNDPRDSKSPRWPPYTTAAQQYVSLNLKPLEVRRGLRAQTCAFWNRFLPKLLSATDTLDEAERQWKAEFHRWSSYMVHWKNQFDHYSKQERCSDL

## CC1=CC2Cc3[nH]c(=O)ccc3C(N)(C1)/C2=C/Cl (stereo not shown) [Compound 13, 11-DESMETHYL-11-CHLORO-HUPERZINE A]
AChE [1]; AChE IC50 (M)*, Table I, rat hippocampal crude homogenates, 10^-11 M to 10^-3 M, 10% DMSO in buffer
  IC50: 8.09e-07 M

## C/C=C1\C2C=C(C)CC1(CN)c1ccc(=O)[nH]c1C2 (stereo not shown)
AChE [2]
  times less potent than (±)-huperzine A as an inhibiter of AChE: about 166 times

## CC=C1C2C=C(C)CC1(N)c1ccc(=O)[nH]c1C2 (single isomer, unassigned; (-)) [Compound 1a, (-)-Huperzine A]
Myasthenia gravis
  control of the clinical manifestations of myasthenia gravis (cases): 99%
mice
  cognition enhancement: effective cognition enhancer
Squirrel monkeys
  cognition enhancement: effective cognition enhancer
animals
  memory and learning: improve memory and learning in animals

## CC1=C[C@H]2Cc3[nH]c(=O)ccc3[C@]3(C1)NCCC[C@H]23 [huperzine B]
animals
  memory and learning: improve memory and learning in animals
AChE [3]
  comparison with THA and physostigmine: appear superior to THA and physostigmine

## CNC(=O)Oc1ccc2c(c1)[C@]1(C)CCN(C)[C@@H]1N2C [physostigmine]
AChE [4]
  maximal duration of action (AChE inhibitory action): ≤ 60 min
Alzheimer's Disease
  cognitive improvement: modest cognitive improvement
[5]
  side effects: causes considerable side effects

## CC=C1C2CCCC1(N)c1ccc(=O)[nH]c1C2 (stereo not shown) [Compound 3, C15 -desmethyl-(C8 -C15)dihydrohuperzine]
AChE [1]; AChE isolated from rat brain, read-out: IC50 value (AChE)
  IC50: 1.3e-05 M
AChE [1]; considering the racemic nature of compound 3
  fold less potent than natural huperzine A: at least fifty-fold
